Experimental data: patent US20130344174A1, “Bioactive Fractions and Compounds from Polygonum genus, their Use in Anti-diarrhea and the Method of Preparation” (HONG KONG BAPTIST UNIVERSITY, priority 2012, published 2013)

Assays:
Type in all cases: in vivo, ICR mice
[1] = test system: castor oil-induced diarrhea in mice; assay: Castor oil-induced diarrhea in mice; conditions: castor oil model, FIG. 6; for inhibitory effect on diarrhea (stools rate, stools grade, diarrhea index): oral, corilagin 30 and 60 mg/kg, ellagic acid 15 and 30 mg/kg
Description: ICR mice weighing 18-22 g were purchased from the Laboratory Animal Services Center, The Chinese University of Hong Kong. The animals were fed with a rodent standard diet with free access to water, and were kept in rooms maintained at 22±1° C. with a 12 h light/dark cycle following international recommendations. All experimental protocols were approved by The Animal Ethics Committees of Hong Kong Baptist University, in accordance with “Institutional Guidelines and Animal Ordinance” (Department of Health, Hong Kong Special Administrative Region). The castor oil-induced diarrhea model, as previously described by Zhou, et al in Zhou [NT]; Hu Zhihua; Wang […]; et al (Institute of Chinese Materia Medica, China Pharmaceutical University, Nanjing); An Inquiry into Preparing Diarrhea Model of Mice and Application of Diarrhea Index[J]; Chinese Traditional and Herbal Drugs; 1994-04, was used in the present study. In brief, extracts, fractions or major components of P. chinense, and loperamide were administered orally for 5 consecutive days. On day 5, each animal was kept individually in a cage, the floor of which was lined with blotting paper, and the paper was changed every hour. 30 min after the last treatment, diarrhea was induced by oral administration of castor oil ([…]). Number of total fecal pellets and wet faeces were counted in 4 h after the administration of castor oil. The diameter of wet faeces was measured and scored in order to evaluate stool consistency as follows: 1-the diameter of wet […] than 1.0 cm; 2-the diameter of wet […] between 1.0 and 2.0 cm; 3-the diameter of wet […] between 2.0 and 3.0 cm; 4- the diameter of wet […] more than 3.0 cm. The stool rate (SR) was calculated through comparing of the number of wet faeces and total faeces, and stool grade (SG) was evaluated according to the formula: [formula] where Nwet is the number of wet faeces; N<1, N1-2, N2-3 and N>3 are the number of wet faeces whose diameter are less than 1.0 cm, between 1.0 and 2.0 cm, between 2.0 and 3.0 cm, and more than 3.0 cm, respectively. Finally, the stool severity was evaluated by the in vivo diarrheal index (DI) and expressed as follows according to the method of Zhou, et al. DI=SR×SG

[2] = test system: intestinal fluid secretion evoked by MgSO4 in mice; assay: Antienteropooling assay (MgSO4-evoked intestinal fluid accumulation); conditions: 5 days, compared to control group, FIG. 7
Description: ICR mice weighing 18-22 g were purchased from the Laboratory Animal Services Center, The Chinese University of Hong Kong. The animals were fed with a rodent standard diet with free access to water, and were kept in rooms maintained at 22±1° C. with a 12 h light/dark cycle following international recommendations. All experimental protocols were approved by The Animal Ethics Committees of Hong Kong Baptist University, in accordance with “Institutional Guidelines and Animal Ordinance” (Department of Health, Hong Kong Special Administrative Region). The experiment was conducted as previously described with a litter revision. Animals will be randomly divided into six groups. Vehicle control group received 0.5% CMC suspension (10 ml/kg, p.o.), the positive control group was administered loperamide at the dose of 2 mg/kg orally; the test groups were orally administered major principles ellagic acid at the doses of 15 and 30 mg/kg, and corilagin at the doses of 30 and 60 mg/kg, respectively. The whole treatment lasted for 5 consecutive days. Before the last treatment, the mice of all groups were fasted overnight. After one hour of the last treatment on day 5, all groups were given the diarrhea reagent (0.5 ml/mouse of a 20% aq. MgSO4, orally). They were killed 30 min later and the small intestines were collected and weighed to find out the accumulation of intestinal fluid secretion evoked by MgSO4.

[3] = test system: intestinal transit of charcoal meal in mice; assay: Gastrointestinal transit test (charcoal meal); conditions: 5 days, FIG. 7
Description: ICR mice weighing 18-22 g were purchased from the Laboratory Animal Services Center, The Chinese University of Hong Kong. The animals were fed with a rodent standard diet with free access to water, and were kept in rooms maintained at 22±1° C. with a 12 h light/dark cycle following international recommendations. All experimental protocols were approved by The Animal Ethics Committees of Hong Kong Baptist University, in accordance with “Institutional Guidelines and Animal Ordinance” (Department of Health, Hong Kong Special Administrative Region). The experiment was conducted based on methods known in the art with a litter revision. Animals will be randomly divided into six groups. Vehicle control group received 0.5% CMC suspension (10 ml/kg, p.o.), the positive control group was administered loperamide at the dose of 2 mg/kg orally; the test groups were orally administered major principles ellagic acid at the doses of 15 and 30 mg/kg, and corilagin at the doses of 30 and 60 mg/kg, respectively. The whole treatment lasted for 5 consecutive days. Before the last treatment, the mice of all groups were fasted overnight. Five minutes later of the last treatment on day 5, 0.5 ml of a 3% suspension of deactivated charcoal in 0.5% aqueous Sodium Carboxymethyl Cellulose was administered orally to each mouse. All the mice were killed by cervical […] 30 min later and the distance travelled by the charcoal plug from pylorus to caecum was determined and expressed as a percentage of the total length of the small intestine.

[4] = test system: magnesium sulphate-induced diarrhea in mice; assay: Magnesium sulphate-induced diarrhea in mice; conditions: magnesium sulfate model, FIG. 6; for inhibitory effect on diarrhea (stools rate, stools grade, diarrhea index): oral, corilagin 30 and 60 mg/kg, ellagic acid 15 and 30 mg/kg
Description: ICR mice weighing 18-22 g were purchased from the Laboratory Animal Services Center, The Chinese University of Hong Kong. The animals were fed with a rodent standard diet with free access to water, and were kept in rooms maintained at 22±1° C. with a 12 h light/dark cycle following international recommendations. All experimental protocols were approved by The Animal Ethics Committees of Hong Kong Baptist University, in accordance with “Institutional Guidelines and Animal Ordinance” (Department of Health, Hong Kong Special Administrative Region). A protocol for castor oil-induced diarrhea was followed. In brief, diarrhea was induced by orally administration of magnesium sulphate at the dose of 3 g/kg to the animals 30 min after pretreatment with extracts, fractions or major components of P. chinense, and loperamide. All the administrations are carried out through oral route. Stool rate (SR), stool grade (SG) and diarrheal index (DI) were all evaluated.

[5] = 60 mg/kg oral vs loperamide 2 mg/kg
[6] = 30 mg/kg oral vs loperamide 2 mg/kg

Row | SMILES | anti-diarrheal activity compared to loperamide [1, 5] | inhibitory effect on diarrhea (stools rate, stools grade, diarrhea index) [1] | intestinal fluid volume (pylorus to caecum) ([2]; 30 mg/kg oral) | intestinal fluid volume (pylorus to caecum) ([2]; 60 mg/kg oral) | intestinal transit of charcoal meal ([3]; 15 mg/kg oral) | intestinal transit of charcoal meal ([3]; 30 mg/kg oral) | anti-diarrheal activity compared to loperamide [4, 5] | inhibitory effect on diarrhea (stools rate, stools grade, diarrhea index) [4] | anti-diarrheal activity compared to loperamide [1, 6] | intestinal fluid volume (pylorus to caecum) ([2]; 15 mg/kg oral) | anti-diarrheal activity compared to loperamide [4, 6]
1 | O=C(O[C@@H]1O[C@@H]2COC(=O)c3cc(O)c(O)c(O)c3-c3c(cc(O)c(O)c3O)C(=O)O[C@H]([C@H]1O)[C@@H]2O)c1cc(O)c(O)c(O)c1 [corilagin] | comparable anti-diarrheal activities as loperamide | significantly inhibitory effects | significantly reduced | significantly reduced | significantly delay | significantly delay | comparable anti-diarrheal activities as loperamide | significantly inhibitory effects |  |  | 
2 | O=c1oc2c(O)c(O)cc3c(=O)oc4c(O)c(O)cc1c4c23 [ellagic acid] |  | significantly inhibitory effects | significantly reduced |  |  | significantly delay |  | significantly inhibitory effects | comparable anti-diarrheal activities as loperamide | significantly reduced | comparable anti-diarrheal activities as loperamide
